The assay has as its target human recombinant H-PGDS (Homo sapiens, UniProt O60760). The assay is described as follows: Fluorescence intensity h-PGDS TBA enzyme assay. Type of assay: biochemical. Conditions: Examples up to 622 (and 3a, 3b).

Chain of human recombinant H-PGDS (O60760 whole entry): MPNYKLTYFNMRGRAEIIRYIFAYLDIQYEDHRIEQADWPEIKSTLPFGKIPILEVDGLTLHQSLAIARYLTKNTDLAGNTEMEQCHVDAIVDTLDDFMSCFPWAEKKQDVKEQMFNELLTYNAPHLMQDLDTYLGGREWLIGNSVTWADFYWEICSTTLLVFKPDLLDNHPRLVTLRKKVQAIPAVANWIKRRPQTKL

On to `CN(C)CCCOc1cccc(CN2CCC(NC(=O)c3ccc(-c4cccc(F)c4)nc3)CC2)c1` [Example 417, N-(1-{3-[3-(Dimethylamino)propoxy]benzyl}piperidin-4-yl)-6-(3-fluorophenyl)nicotinamide], for which the IC50 (in general, the midpoint of a concentration-inhibition curve) is 1.1 nM. Consider `O=C(NC1CCN(Cc2ccc(-c3ccccn3)cc2)CC1)c1ccc(-c2cccc(F)c2)nc1` [Example 201, 6-(3-Fluorophenyl)-N-[1-(4-pyridin-2-ylbenzyl)piperidin-4-yl]nicotinamide], for which the IC50 worked out at 1.93 nM. The value for `CCOC(=O)N1CCC(NC(=O)c2ccc(-c3ccccc3)nc2)CC1` [Example 3b, Ethyl 4-{[(6-phenylpyridin-3-yl)carbonyl]amino}piperidine-1-carboxylate] was 0.403 nM; that for `O=C(NC1CCN(Cc2ccccc2Cl)CC1)c1ccc(-c2cccc(F)c2)nc1` [Example 299, N-[1-(2-Chlorobenzyl)piperidin-4-yl]-6-(3-fluorophenyl)nicotinamide] was 0.308 nM. For `O=C(NC1CCN(Cc2cnc3ccccc3c2)CC1)c1ccc(-c2cccc(F)c2)nc1` [Example 246, 6-(3-Fluorophenyl)-N-[1-(quinolin-3-ylmethyl)piperidin-4-yl]nicotinamide], the IC50 stood at 1.97 nM. The same measure for `CCN1CCN(C(=O)c2ccc(N3CCC(NC(=O)c4ccc(-c5cccc(F)c5)nc4)CC3)nn2)CC1` [Example 87, N-(1-{6-[(4-Ethylpiperazin-1-yl)carbonyl]pyridazin-3-yl}piperidin-4-yl)-6-(3-fluorophenyl)nicotinamide]: 0.538 nM; for `O=C(NC1CCN(CC2=Cc3ccccc3OC2)CC1)c1ccc(-c2cccc(F)c2)nc1` [Example 341, N-[1-(2H-Chromen-3-ylmethyl)piperidin-4-yl]-6-(3-fluorophenyl)nicotinamide]: 0.485 nM. The same measure for `O=C(NC1CCN(Cc2cccc(Cl)c2)CC1)c1ccc(-c2cccc(F)c2)nc1` [Example 233, N-[1-(3-Chlorobenzyl)piperidin-4-yl]-6-(3-fluorophenyl)nicotinamide]: 0.352 nM; for `COc1ccc(CC(C)N2CCC(NC(=O)c3ccc(-c4cccc(F)c4)nc3)CC2)cc1` (centres unmarked) [Example 534, 6-(3-Fluorophenyl)-N-{1-[2-(4-methoxyphenyl)-1-methylethyl]piperidin-4-yl}nicotinamide]: 0.234 nM; for `CC1C=CC(C)N1C(=O)c1ccc(N2CCC(NC(=O)c3ccc(-c4cccc(F)c4)nc3)CC2)nc1` (centres unmarked) [Example 578, N-(1-{5-[(2,5-Dimethyl-2,5-dihydro-1H-pyrrol-1-yl)carbonyl]pyridin-2-yl}piperidin-4-yl)-6-(3-fluorophenyl)nicotinamide]: 3.1 nM. The same measure for `O=C(NC1CN(c2ncccc2C(F)(F)F)C1)c1ccc(-c2cccc(F)c2)nc1` [Example 604, 6-(3-Fluorophenyl)-N-{1-[3-(trifluoromethyl)pyridin-2-yl]azetidin-3-yl}nicotinamide]: 11.5 nM; for `N#Cc1cccc(-c2csc(CN3CCC(NC(=O)c4ccc(-c5cccc(F)c5)nc4)CC3)n2)c1` [Example 410, N-(1-{[4-(3-Cyanophenyl)-1,3-thiazol-2-yl]methyl}piperidin-4-yl)-6-(3-fluorophenyl)nicotinamide]: 16.3 nM. For `COc1ccc(F)c(CN2CCC(NC(=O)c3ccc(-c4cccc(F)c4)nc3)CC2)c1` [Example 323, N-[1-(2-Fluoro-5-methoxybenzyl)piperidin-4-yl]-6-(3-fluorophenyl)nicotinamide], the half-inhibitory concentration (IC50) was 0.622 nM.

On to `O=C(NC1CCN(Cc2cnn(-c3ccc(F)cc3)c2)CC1)c1ccc(-c2cccc(F)c2)nc1` [Example 275, 6-(3-Fluorophenyl)-N-(1-{[1-(4-fluorophenyl)-1H-pyrazol-4-yl]methyl}piperidin-4-yl)nicotinamide], for which the concentration for half-maximal inhibition (IC50) came out at 5.49 nM. As to `COc1cccc(-c2ccc(C(=O)NC3CCN(C)CC3)cn2)c1` [Example 16, 6-(3-Methoxyphenyl)-N-(1-methylpiperidin-4-yl)nicotinamide], the half-inhibitory concentration (IC50) turned out to be 146 nM.

As for `Cc1c(CN2CCC(NC(=O)c3ccc(-c4cccc(F)c4)nc3)CC2)nc2ccccn12` [Example 432, 6-(3-Fluorophenyl)-N-{1-[(3-methylimidazo[1,2-a]pyridin-2-yl)methyl]piperidin-4-yl}nicotinamide], the IC50 was 0.962 nM.

`CC(C)(C)c1ncc2c(n1)CCC(CN1CCC(NC(=O)c3ccc(-c4cccc(F)c4)nc3)CC1)C2` (centres unmarked) [Example 402, N-{1-[(2-tert-Butyl-5,6,7,8-tetrahydroquinazolin-6-yl)methyl]piperidin-4-yl}-6-(3-fluorophenyl)nicotinamide]: the IC50 came out at 1.64 nM. The value for `Cn1ccnc1CN1CCC(NC(=O)c2ccc(-c3cccc(F)c3)nc2)CC1` [Example 215, 6-(3-Fluorophenyl)-N-{1-[(1-methyl-1H-imidazol-2-yl)methyl]piperidin-4-yl}nicotinamide] was 0.38 nM; that for `O=C(NC1CCN(CCCC(F)(F)F)CC1)c1ccc(-c2cccc(F)c2)nc1` [Example 312, 6-(3-Fluorophenyl)-N-[1-(4,4,4-trifluorobutyl)piperidin-4-yl]nicotinamide] was 1.08 nM; that for `O=C(NC1CCN(Cc2ccc(-c3ncccn3)cc2)CC1)c1ccc(-c2cccc(F)c2)nc1` [Example 330, 6-(3-Fluorophenyl)-N-[1-(4-pyrimidin-2-ylbenzyl)piperidin-4-yl]nicotinamide] was 1.71 nM.

As for `Cc1noc(NC(=O)c2ccc(N3CCC(NC(=O)c4ccc(-c5cccc(F)c5)nc4)CC3)nn2)c1C` [Example 86, N-(3,4-Dimethylisoxazol-5-yl)-6-[4-({[6-(3-fluorophenyl)pyridin-3-yl]carbonyl}amino)piperidin-1-yl]pyridazine-3-carboxamide], the IC50 is 0.876 nM. With `O=C(NC1CCN(CC2CCC=CO2)CC1)c1ccc(-c2cccc(F)c2)nc1` (centres unmarked) [Example 186, N-[1-(3,4-Dihydro-2H-pyran-2-ylmethyl)piperidin-4-yl]-6-(3-fluorophenyl)nicotinamide], the IC50 was 1.79 nM. On to `Cc1cnc(Cn2cnc3c(N4CCC(NC(=O)c5ccc(-c6cccc(F)c6)nc5)CC4)ncnc32)cn1` [Example 162, 6-(3-Fluorophenyl)-N-(1-{9-[(5-methylpyrazin-2-yl)methyl]-9H-purin-6-yl}piperidin-4-yl)nicotinamide], for which the IC50 is 1.1 nM. With `Cn1nc(CN2CCC(NC(=O)c3ccc(-c4cccc(F)c4)nc3)CC2)nc1-c1ccc(F)cc1` [Example 484, 6-(3-Fluorophenyl)-N-(1-{[5-(4-fluorophenyl)-1-methyl-1H-1,2,4-triazol-3-yl]methyl}piperidin-4-yl)nicotinamide], the concentration for half-maximal inhibition (IC50) was determined as 2.68 nM.

In the case of `O=C(NC1CCN(Cc2ccon2)CC1)c1ccc(-c2cccc(F)c2)nc1` [Example 363, 6-(3-Fluorophenyl)-N-[1-(isoxazol-3-ylmethyl)piperidin-4-yl]nicotinamide], the half-inhibitory concentration (IC50) is 0.299 nM. The value for `O=C(NC1CCN(Cc2nc3ccccc3n2CCF)CC1)c1ccc(-c2cccc(F)c2)nc1` [Example 423] was 0.931 nM; that for `Cc1nc(-c2ccccc2)ncc1CN1CCC(NC(=O)c2ccc(-c3cccc(F)c3)nc2)CC1` [Example 357, 6-(3-Fluorophenyl)-N-{1-[(4-methyl-2-phenylpyrimidin-5-yl)methyl]piperidin-4-yl}nicotinamide] was 6.66 nM. The value for `O=C(NC1CCN(c2ncccc2C(=O)N2CCOCC2)CC1)c1ccc(-c2cccc(F)c2)nc1` [Example 146, 6-(3-Fluorophenyl)-N-{1-[3-(morpholin-4-ylcarbonyl)pyridin-2-yl]piperidin-4-yl}nicotinamide] was 1.55 nM; that for `Cn1ccc(CN2CCC(NC(=O)c3ccc(-c4cccc(F)c4)nc3)CC2)n1` [Example 396, 6-(3-Fluorophenyl)-N-{1-[(1-methyl-1H-pyrazol-3-yl)methyl]piperidin-4-yl}nicotinamide] was 1.45 nM. Consider `Cc1cc(NC(=O)c2cccnc2N2CCC(NC(=O)c3ccc(-c4cccc(F)c4)nc3)CC2)no1` [Example 168, 2-[4-({[6-(3-Fluorophenyl)pyridin-3-yl]carbonyl}amino)piperidin-1-yl]-N-(5-methylisoxazol-3-yl)nicotinamide], for which the IC50 came to 2.53 nM. As for `COc1cc(OC)cc(C(C)N2CCC(NC(=O)c3ccc(-c4cccc(F)c4)nc3)CC2)c1` (centres unmarked) [Example 544, N-{1-[1-(3,5-Dimethoxyphenyl)ethyl]piperidin-4-yl}-6-(3-fluorophenyl)nicotinamide], the concentration for half-maximal inhibition (IC50) was found to be 1.27 nM. On to `COc1ccc(CN2CCC(NC(=O)c3ccc(-c4cccc(F)c4)nc3)CC2)cc1Br` [Example 245, N-[1-(3-Bromo-4-methoxybenzyl)piperidin-4-yl]-6-(3-fluorophenyl)nicotinamide], for which the 50% inhibitory concentration (IC50) came out at 1.2 nM.

In the case of `O=C(NC1CCN(Cc2ccccc2-c2cncnc2)CC1)c1ccc(-c2cccc(F)c2)nc1` [Example 342, 6-(3-Fluorophenyl)-N-[1-(2-pyrimidin-5-ylbenzyl)piperidin-4-yl]nicotinamide], the half-maximal inhibitory concentration (IC50) amounted to 0.281 nM. The same measure for `Cn1cnc(CN2CCC(NC(=O)c3ccc(-c4cccc(F)c4)nc3)CC2)c1` [Example 374, 6-(3-Fluorophenyl)-N-{1-[(1-methyl-1H-imidazol-4-yl)methyl]piperidin-4-yl}nicotinamide]: 2.99 nM; for `O=C(NC1CCN(Cc2ccc(-n3ccnn3)cc2)CC1)c1ccc(-c2cccc(F)c2)nc1` [Example 492, 6-(3-Fluorophenyl)-N-{1-[4-(1H-1,2,3-triazol-1-yl)benzyl]piperidin-4-yl}nicotinamide]: 0.285 nM; for `Cc1nnc(N2CCC(NC(=O)c3ccc(-c4cccc(F)c4)nc3)CC2)c2ccccc12` [Example 131, 6-(3-Fluorophenyl)-N-[1-(4-methylphthalazin-1-yl)piperidin-4-yl]nicotinamide]: 0.463 nM. In the case of `O=C(NC1CCN(c2ncccc2Cl)CC1)c1ccc(-c2cccc(F)c2)nc1` [Example 65, N-[1-(3-Ahloropyridin-2-yl)piperidin-4-yl]-6-(3-fluorophenyl)nicotinamide], the half-inhibitory concentration (IC50) came to 0.354 nM. Regarding `O=C(NC1CCN(Cc2cc(=O)[nH]c(=O)[nH]2)CC1)c1ccc(-c2cccc(F)c2)nc1` [Example 310, N-{1-[(2,6-Dioxo-1,2,3,6-tetrahydropyrimidin-4-yl)methyl]piperidin-4-yl)-6-(3-fluorophenyl)nicotinamide], the IC50 stood at 4.78 nM.

Source of the values: patent US7902373B2 (Pfizer Inc, priority 2006, dated 2011).
